The record followed here is US7435846B2, “Absorption and bioavailability of carotenoids, formulations and applications” (Industrial Organica, S.A. De C.V., priority 2006, dated 2008).

Details of this series: species or system human. Particulars: in vivo. On the procedure: Ten (10) healthy non smoking students (ranging in age from 22-27 years), were subjected to the following two treatments:
(A) Four (4) weeks of ingesting one gelatin capsule at their noonday meal, containing 20 mg of crystalline lutein dispersed in soybean oil and after a 12 hours fast (overnight) blood samples were taken early the next morning for plasma analysis.
(B) After a two (2) week interval washout period, the same group of subjects were given, during a period of four (4) weeks, a gelatin capsule containing a micellar dispersion of lutein diacetate (prepared as described in example 3) in soybean oil. Each capsule contained 24.2 mg of lutein diacetate and was ingested at lunch time. After a twelve (12) hour fast, blood samples were collected in the early morning of the next day for plasma analysis.

For lutein diacetate, the “ratio of the average absorption of the lutein diacetate divided by the average absorption of the free lutein” value came out at 2.81 times.
